Among the test systems are 786-0 renal; HCT-116 colon; HS 578T breast; KM12 colon; M14 melanoma; SK-MEL-5 melanoma; SN12C renal; SW-620 colon; UO-31 renal; RXF 393 renal.
Assay in all cases: growth of human tumour cells (NCI), 48 h

The structures appear in SMILES notation.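 Interpolation was linear, between the two tested concentrations surrounding the appropriate level; five concentrations were tested over 48 hours in 96-well plates. GI50: concentration for 50% inhibition of growth. TGI is the concentration that stops growth completely.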 Bounds are passed on as bounds.

In the case of `c1cc(OCCCCCOc2cccc(-c3nc4ccccc4[nH]3)c2)cc(-c2nc3ccccc3[nH]2)c1`, the GI50 in the assay with 786-0 renal was 2.68 µM; in the assay on HCT-116 colon, 2070 nM; in the assay with HS 578T breast it was 2560 nM; in the assay with KM12 colon, 2.69 µM; in the assay with M14 melanoma it was 2.57 µM; with SK-MEL-5 melanoma, 1.68 µM. The GI50 was 4.61 µM with SN12C renal and 2.87 µM with SW-620 colon. Moreover, the TGI was over 100 µM in the assay on 786-0 renal; over 100 µM with HCT-116 colon; 8.51 µM in the assay on HS 578T breast; over 100 µM with KM12 colon; over 100 µM in the assay on M14 melanoma; 3.08 µM with SK-MEL-5 melanoma. Further, the TGI in the assay on SN12C renal and in the assay with SW-620 colon was over 100 µM each time.
Turning to `C/C(=C\c1csc(C)n1)[C@@H]1C[C@@H]2O[C@]2(C)CCC[C@H](C)[C@H](O)[C@@H](C)C(=O)C(C)(C)[C@@H](O)CC(=O)N1`, the GI50 was 0.000182 µM with 786-0 renal; 0.0917 nM in the assay with HCT-116 colon; 0.0861 nM with HS 578T breast; 0.000141 µM in the assay on KM12 colon; 0.00154 µM in the assay on M14 melanoma; 0.000137 µM with SK-MEL-5 melanoma. Also, the GI50 was 0.000214 µM in the assay with SN12C renal, 0.00016 µM in the assay on SW-620 colon and 0.000126 µM in the assay on UO-31 renal. Further, the TGI in the assay with 786-0 renal was found to be 0.000356 µM; in the assay with HCT-116 colon it was 0.0003 µM; with HS 578T breast, 0.000226 µM; in the assay on KM12 colon, 0.000354 µM; in the assay with M14 melanoma, 0.011 µM; with SK-MEL-5 melanoma, 0.000337 µM. Besides, the TGI in the assay on SN12C renal was 0.000418 µM; with SW-620 colon, 0.00042 µM; in the assay with UO-31 renal, 0.000177 µM.
For `COc1cc(/C=C/C(=O)c2nc3cc(F)ccc3nc2C)cc(OC)c1OC`, the GI50 was over 23.2 µM with 786-0 renal; 3590 nM with HCT-116 colon; 5340 nM with HS 578T breast; 3.49 µM in the assay with KM12 colon; over 43.2 µM in the assay with M14 melanoma; 5.04 µM with SK-MEL-5 melanoma. The GI50 is 6.3 µM in the assay on SN12C renal, 5.34 µM in the assay on SW-620 colon and 7.07 µM with UO-31 renal. The TGI is over 100 µM in the assay on 786-0 renal; over 51.6 µM in the assay on HCT-116 colon; over 100 µM with HS 578T breast; over 100 µM in the assay with KM12 colon; over 100 µM in the assay with M14 melanoma; over 100 µM in the assay with SK-MEL-5 melanoma. Besides, the TGI with SN12C renal, in the assay with SW-620 colon and in the assay on UO-31 renal was over 100 µM each time.
Consider `O=C1c2ccccc2N1C(=O)c1ccccc1[N+](=O)[O-]`, for which the TGI in the assay with 786-0 renal, in the assay with HCT-116 colon, with HS 578T breast, in the assay on KM12 colon, in the assay with M14 melanoma and in the assay on SK-MEL-5 melanoma was over 100 µM in each case. Moreover, the TGI with SW-620 colon and with UO-31 renal was over 100 µM throughout.
As to `NS(=O)(=O)c1cc2c(cc1Cl)NCNS2(=O)=O`, the TGI in the assay on 786-0 renal, in the assay on HCT-116 colon, in the assay on HS 578T breast, in the assay on KM12 colon, in the assay with M14 melanoma and with SK-MEL-5 melanoma was over 100 µM each time. For the same compound, the TGI in the assay with SN12C renal, in the assay with SW-620 colon and with UO-31 renal was over 100 µM each time.
As to `O=C(O)c1cn(C2CC2)c2cc(N3CCN(C(=O)N(c4ccccc4)c4nc(-c5ccccc5)cs4)CC3)c(F)cc2c1=O`, the GI50 in the assay on 786-0 renal is 0.417 µM; in the assay with HCT-116 colon it was 351 nM; in the assay on HS 578T breast it was 393 nM; with KM12 colon it was 0.369 µM; in the assay on M14 melanoma, 0.437 µM; with RXF 393 renal, 0.272 µM. In addition, the GI50 was 0.717 µM with SK-MEL-5 melanoma and 0.308 µM with SN12C renal. In addition, the TGI in the assay on 786-0 renal is over 100 µM; in the assay on HCT-116 colon, over 100 µM; with HS 578T breast, over 100 µM; with KM12 colon, over 100 µM; with M14 melanoma it was over 100 µM; in the assay with RXF 393 renal it was 1.49 µM. The TGI in the assay with SK-MEL-5 melanoma and with SN12C renal was over 100 µM in each case.
On to `O=C1c2ccccc2C2(O)N(c3ccccc3)C(=S)N(c3ccccc3)C12O` (configuration not stated), for which the TGI with 786-0 renal, in the assay with HCT-116 colon, with KM12 colon, with M14 melanoma, in the assay with RXF 393 renal and with SK-MEL-5 melanoma was over 100 µM in each case. The TGI in the assay with SN12C renal, with SW-620 colon and in the assay with UO-31 renal was over 100 µM throughout.
`Cc1ccccc1NC(=O)C1C(=O)N(c2ccccc2C)C(=O)/C1=N\NC(N)=O` (configuration not stated): the TGI in the assay with 786-0 renal, in the assay with HCT-116 colon, in the assay on KM12 colon, in the assay on M14 melanoma, in the assay with RXF 393 renal and in the assay on SK-MEL-5 melanoma was over 100 µM throughout. Besides, the TGI in the assay on SN12C renal, in the assay with SW-620 colon and in the assay on UO-31 renal was over 100 µM each time.
For the compound `O=c1c2cc(Br)ccc2nc(CNc2ccccc2)n1-c1ccccc1`, the TGI with 786-0 renal was 28.4 µM; in the assay with HCT-116 colon, 33.9 µM; in the assay on KM12 colon, over 100 µM; in the assay with M14 melanoma it was 47.6 µM; in the assay on RXF 393 renal, 44.4 µM; in the assay on SK-MEL-5 melanoma, 38.1 µM. Besides, the TGI in the assay on SN12C renal is 29 µM; in the assay on SW-620 colon it was 27.5 µM; in the assay with UO-31 renal it was over 57.8 µM.

These data come from PubChem BioAssay (NCI).
